# Measured values: article PMC8305169, “Two Pathway-Specific Transcriptional Regulators, PltR and PltZ, Coordinate Autoinduction of Pyoluteorin in Pseudomonas protegens Pf-5” (Microorganisms, 2021)
# pKd: −log10 of the molar value.
# Target: T1, PltZ (Pseudomonas protegens, UniProt Q4KCY3)
# T1 construct: full-length, N-terminal 6xHis tag (pET28a), expressed in E. coli BL21 (DE3), Ni-NTA purified
# Assay: isothermal titration calorimetry
# Type: binding
# T1 sequence (Q4KCY3 entry or part of it): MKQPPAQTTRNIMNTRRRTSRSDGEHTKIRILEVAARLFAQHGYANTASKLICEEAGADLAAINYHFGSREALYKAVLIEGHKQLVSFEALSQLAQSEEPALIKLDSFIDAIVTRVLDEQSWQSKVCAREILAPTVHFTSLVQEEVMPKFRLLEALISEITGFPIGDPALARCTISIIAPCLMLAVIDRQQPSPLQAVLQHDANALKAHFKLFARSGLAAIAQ
structure (smiles),measurement,value
O=C(c1cc(Cl)c(Cl)[nH]1)c1c(O)cccc1O [pyoluteorin],pKd,~7.88
